We go through 29 molecules from patent EP0313984A1, “Substituted azolyl methyl carbinols and pharmaceutical compositions containing them” (BAYER AG, priority 1987, dated 1989).

Experiment [1] deals with Trichophyton mentagr. As to the kind of experiment: Antimycotic in-vitro activity, serial dilution test (MIC). It is filed as cell-based, Trichophyton mentagrophytes. To be noted: inoculum 5 x 10³ to 10⁴ Keime/ml, Sabouraud's milieu d'epreuve, 28 °C to 37 °C, 96 h, read-out: MHK-Werte Trichophyton mentagr. On the procedure:
(§1) Die in-vitro-Prüfungen wurden im Reihenverdünnungstest mit Keiminokula von durchschnittlich 5 x 10³ bis 10⁴ Keimen/ml Substrat durchgeführt. Als Nährmedium dienten • a) für Dermatophyten und Schimmelpilze: Sabouraud's milieu d'epreuve • b) für Hefen: Fleischextrakt-Traubenzucker-Bouillon.
(§2) Die Bebrütungstemperatur betrug 28 °C bis 37 °C, die Bebrütungsdauer lag bei 24 bis 96 Stunden bei Hefen und 96 Stunden bei Dermatophyten und Schimmelpilzen.

The subject of experiment [2] is Aspergillus fumigatus. The description is as above. In kind it is cell-based. To be noted: inoculum 5 x 10³ to 10⁴ Keime/ml, Sabouraud's milieu d'epreuve, 28 °C to 37 °C, 96 h, read-out: MHK-Werte Aspergillus fumigatus. The procedure:
as §1, §2

The subject of experiment [3] is Torulopsis glabrata. The experiment is described as above. As to conditions: Nakaseomyces glabratus, inoculum 5 x 10³ to 10⁴ Keime/ml, Fleischextrakt-Traubenzucker-Bouillon, 28 °C to 37 °C, 24 to 96 h, read-out: MHK-Werte Torulopsis glabrata. In kind it is cell-based. The procedure:
as §1, §2

Experiment [4] concerns Candida albicans. Described as above. It is filed as cell-based. To be noted: inoculum 5 x 10³ to 10⁴ Keime/ml, Fleischextrakt-Traubenzucker-Bouillon, 28 °C to 37 °C, 24 to 96 h, read-out: MHK-Werte Candida albicans. The procedure:
as §1, §2

Experiment [5] deals with Candida. The experiment can be described thus: Antimycotic in-vivo activity (oral) in mouse candidosis. On the set-up: species or system Mäuse vom Typ SPF-CF₁. On the procedure: Mäuse vom Typ SPF-CF₁ werden intravenös mit 1 - 2 x 10⁶ logarithmisch wachsenden Candida-Zellen, die in physiologischer Kochsalzlösung suspendiert werden, infiziert. Eine Stunde vor und sieben Stunden nach der Infektion werden die Tiere mit jeweils 25 - 100 mg/kg Körpergewicht der Präparate oral behandelt.
Unbehandelte Tiere sterben 3 bis 6 Tage post infektionem. Die Überlebensrate am 6.Tag post infektionem beträgt bei unbehandelten Kontrolltieren etwa 5 %.

The subject of experiment [6] is Dermatophyten, Schimmelpilze, Hefen. As to the kind of experiment: Antimycotic in-vitro activity, serial dilution test (overall comparison). It is filed as cell-based. As to conditions: compared in words with known compounds (A) and (B). The procedure:
as §1, §2

The subject of experiment [7] is Microsporum canis. As to the kind of experiment: Antimycotic in-vitro activity, serial dilution test (MIC). In kind it is cell-based. As to conditions: inoculum 5 x 10³ to 10⁴ Keime/ml, Sabouraud's milieu d'epreuve, 28 °C to 37 °C, 96 h, read-out: MHK-Werte Microsporum canis. On the procedure: as §1, §2
[8] abbreviates: mouse candidosis, oral, compared in words with known compounds (A) and (B).

SMILES strings stand for the structures. Values after ≈ are worked out from the molar mass of the structure shown.

Consider `OC(Cn1cncn1)(Cn1cncn1)c1ccccc1` [(A), 2-Phenyl-1,3-bis-(1,2,4-triazol-1-yl)-propan-2-ol, reference compound], for which the MIC was 64 µg/mL (≈ 237 µM) in experiment [1], greater than 64 µg/mL in experiment [2], greater than 64 µg/mL in experiment [3] and 64 µg/mL (≈ 237 µM) in experiment [4].

In the case of `CC(C)(n1cncn1)C(O)(Cn1ccnc1)c1ccc(F)cc1` (stereo not drawn) [(B), 2-(4-Fluorphenyl)-3-methyl-1-imidazol-1-yl-3-(1,2,4-triazol-1-yl)-butan-2-ol, reference compound], the Wirkung result in experiment [5] (mice infected i.v. with 1 - 2 x 10⁶ Candida cells, 25 - 100 mg/kg oral 1 h before and 7 h after infection, survival at day 6 p.i., class symbols, key not readable) is recorded as “k.w”. The MIC in experiment [1], in experiment [2], in experiment [3] and in experiment [4] was greater than 64 µg/mL in each case.

With `Cc1nc(C(O)(Cn2cncn2)c2ccc(F)cc2)cs1` (stereo not drawn) [Verbindung 1, 1-(4-Fluorphenyl)-1-(2-methylthiazol-4-yl)-2-(1,2,4-triazol-1-yl)-ethanol], the MIC in experiment [1] was 4 µg/mL (≈ 13.1 µM); in experiment [2], 32 µg/mL (≈ 105 µM); in experiment [3] it was greater than 64 µg/mL; in experiment [4] it was 15 µg/mL (≈ 49.3 µM). In experiment [6], the “antimykotische Wirksamkeit” value is “bessere antimykotische Wirksamkeit”.

Consider `Cc1ccc(C(O)(Cn2ccnc2)c2csc(-c3ccc(Cl)cc3)n2)cc1` (stereo not drawn) [Verbindung 3], for which the MIC was less than 1 µg/mL in experiment [1]; 16 µg/mL (≈ 40.4 µM) in experiment [2]; 16 µg/mL (≈ 40.4 µM) in experiment [7]; 4 µg/mL (≈ 10.1 µM) in experiment [3]; less than 1 µg/mL in experiment [4]. In addition, the “antimykotische Wirksamkeit” value in experiment [6] is reported as “bessere antimykotische Wirksamkeit”.

Turning to `Cc1ccc(-c2nc(C(O)(Cn3ccnc3)c3ccc(Cl)cc3)cs2)cc1` (stereo not drawn) [Verbindung 14], the MIC in experiment [1] is less than 1 µg/mL; in experiment [2] it was 4 µg/mL (≈ 10.1 µM); in experiment [7] it was 8 µg/mL (≈ 20.2 µM); in experiment [3], 2 µg/mL (≈ 5.05 µM); in experiment [4] it was 2 µg/mL (≈ 5.05 µM). The “antimykotische Wirksamkeit” value in experiment [6] was “bessere antimykotische Wirksamkeit”.

For the molecule `Cc1ccc(-c2nc(C(O)(Cn3cncn3)c3ccc(Cl)cc3)cs2)cc1` (stereo not drawn) [Verbindung 15], the MIC in experiment [1] was less than 1 µg/mL; in experiment [2], 4 µg/mL (≈ 10.1 µM); in experiment [7], 8 µg/mL (≈ 20.2 µM); in experiment [3], 4 µg/mL (≈ 10.1 µM); in experiment [4] it was 4 µg/mL (≈ 10.1 µM). Further, the “antimykotische Wirksamkeit” value in experiment [6] is given as “bessere antimykotische Wirksamkeit”.

`OC(Cn1ccnc1)(c1ccc(Cl)cc1)c1csc(N2CCCCC2)n1` (stereo not drawn) [Verbindung 18]: the MIC is less than 1 µg/mL in experiment [1]; 32 µg/mL (≈ 82.3 µM) in experiment [2]; 64 µg/mL (≈ 165 µM) in experiment [7]; 16 µg/mL (≈ 41.1 µM) in experiment [3]; 8 µg/mL (≈ 20.6 µM) in experiment [4]. Also, in experiment [6], the “antimykotische Wirksamkeit” value was “bessere antimykotische Wirksamkeit”.

`OC(Cn1ccnc1)(c1ccc(Cl)cc1)c1csc(-c2ccc(Cl)cc2)n1` (stereo not drawn) [Verbindung 20]: the “antimykotische Wirksamkeit” value in experiment [6] is reported as “bessere antimykotische Wirksamkeit”.

Turning to `OC(Cn1cncn1)(c1ccc(Cl)cc1)c1csc(-c2ccc(Cl)cc2)n1` (stereo not drawn) [Verbindung 21], the Wirkung entry in experiment [5] (setting [8]) is reported as “bessere Wirkung”. The “antimykotische Wirksamkeit” value in experiment [6] is reported as “bessere antimykotische Wirksamkeit”.

`OC(Cn1ccnc1)(c1ccc(Cl)cc1)c1csc(-c2ccc(-n3ccnc3)c(Cl)c2)n1` (stereo not drawn) [Verbindung 22]: the Wirkung result in experiment [5] (setting [8]) is given as “bessere Wirkung”. In addition, the “antimykotische Wirksamkeit” value in experiment [6] is on record as “bessere antimykotische Wirksamkeit”.

With `OC(Cn1cncn1)(c1ccc(Cl)cc1)c1csc(-c2ccc(-n3cncn3)c(Cl)c2)n1` (stereo not drawn) [Verbindung 23], the Wirkung result in experiment [5] (setting [8]) is given as “bessere Wirkung”. For the same molecule, the “antimykotische Wirksamkeit” value in experiment [6] is “bessere antimykotische Wirksamkeit”.

In the case of `OC(Cn1ccnc1)(c1ccc(Cl)cc1)c1csc(COc2ccc(Cl)cc2Cl)n1` (stereo not drawn) [Verbindung 25], in experiment [6], the “antimykotische Wirksamkeit” value is given as “bessere antimykotische Wirksamkeit”.

On to `OC(Cn1cncn1)(c1ccc(Cl)cc1)c1csc(COc2ccc(Cl)cc2Cl)n1` (stereo not drawn) [Verbindung 26], for which, in experiment [6], the “antimykotische Wirksamkeit” value is reported as “bessere antimykotische Wirksamkeit”.

For `OC(Cn1ccnc1)(c1ccc(F)cc1)c1csc(-c2ccccc2)n1` (stereo not drawn) [Verbindung 27], the “antimykotische Wirksamkeit” value in experiment [6] is listed as “bessere antimykotische Wirksamkeit”.

For the molecule `OC(Cn1cncn1)(c1ccc(F)cc1)c1csc(-c2ccccc2)n1` (stereo not drawn) [Verbindung 28], in experiment [6], the “antimykotische Wirksamkeit” value is on record as “bessere antimykotische Wirksamkeit”.

For the molecule `Cc1cccc(-c2nc(C(O)(Cn3cncn3)c3ccc(Cl)cc3)cs2)c1` (stereo not drawn) [Verbindung 36], the “antimykotische Wirksamkeit” value in experiment [6] was “bessere antimykotische Wirksamkeit”.

On to `OC(Cn1ccnc1)(c1ccc(F)cc1)c1csc(-c2ccc(Cl)cc2)n1` (stereo not drawn) [Verbindung 39], for which the “antimykotische Wirksamkeit” value in experiment [6] is given as “bessere antimykotische Wirksamkeit”.

As for `OC(Cn1cncn1)(c1ccc(F)cc1)c1csc(-c2ccc(Cl)cc2)n1` (stereo not drawn) [Verbindung 40], the Wirkung entry in experiment [5] (setting [8]) was “bessere Wirkung”. In experiment [6], the “antimykotische Wirksamkeit” value is “bessere antimykotische Wirksamkeit”.

For `OC(Cn1cncn1)(c1ccc(Cl)cc1)c1csc(-c2ccc(F)cc2)n1` (stereo not drawn) [Verbindung 41], the Wirkung entry in experiment [5] (setting [8]) is given as “bessere Wirkung”. For the same molecule, the “antimykotische Wirksamkeit” value in experiment [6] is given as “bessere antimykotische Wirksamkeit”.

Regarding `OC(Cn1cncn1)(c1ccc(Cl)cc1)c1csc(-c2ccc(-n3cncn3)cc2)n1` (stereo not drawn) [Verbindung 42], the Wirkung result in experiment [5] (setting [8]) was “bessere Wirkung”. Further, the “antimykotische Wirksamkeit” value in experiment [6] is recorded as “bessere antimykotische Wirksamkeit”.

As to `CN(c1ccccc1)c1nc(C(O)(Cn2cncn2)c2ccc(Cl)cc2)cs1` (stereo not drawn) [Verbindung 43], the “antimykotische Wirksamkeit” value in experiment [6] is “bessere antimykotische Wirksamkeit”.

Take `OC(Cn1cncn1)(c1ccc(F)cc1)c1csc(-c2ccc(F)cc2)n1` (stereo not drawn) [Verbindung 44]: in experiment [6], the “antimykotische Wirksamkeit” value is on record as “bessere antimykotische Wirksamkeit”.

On to `OC(Cn1cncn1)(c1ccc(Cl)cc1)c1csc(Nc2ccccc2)n1` (stereo not drawn) [Verbindung 45], for which the “antimykotische Wirksamkeit” value in experiment [6] is on record as “bessere antimykotische Wirksamkeit”.

`OC(Cn1cncn1)(c1ccc(Cl)cc1)c1csc(-c2ccc(F)c(Cl)c2)n1` (stereo not drawn) [Verbindung 47]: in experiment [6], the “antimykotische Wirksamkeit” value is on record as “bessere antimykotische Wirksamkeit”.

As for `CCN(CC)c1nc(C(O)(Cn2cncn2)c2ccc(Cl)cc2)cs1` (stereo not drawn) [Verbindung 49], the “antimykotische Wirksamkeit” value in experiment [6] is “bessere antimykotische Wirksamkeit”.

Turning to `Cc1ccccc1-c1nc(C(O)(Cn2cncn2)c2ccc(Cl)cc2)cs1` (stereo not drawn) [Verbindung 52], the “antimykotische Wirksamkeit” value in experiment [6] is on record as “bessere antimykotische Wirksamkeit”.

For the molecule `Cc1ccc(C(O)(Cn2cncn2)c2csc(C)n2)cc1` (stereo not drawn) [Verbindung 57], the Wirkung entry in experiment [5] (setting [8]) was “bessere Wirkung”.

As for `OC(Cn1cncn1)(c1ccc(Cl)cc1)c1csc(-c2ccccc2)n1` (stereo not drawn) [Verbindung 59], the “antimykotische Wirksamkeit” value in experiment [6] was “bessere antimykotische Wirksamkeit”.

Consider `OC(Cn1ccnc1)(c1ccc(Cl)cc1)c1csc(-c2ccccc2)n1` (stereo not drawn) [Verbindung 62], for which the “antimykotische Wirksamkeit” value in experiment [6] is listed as “bessere antimykotische Wirksamkeit”.
